{"source": "patent US20060069132A1", "about": "“Azolecarboxamide herbicides” (priority 2004, published 2006)", "key": {"redroot pigweed": {"tested_on": "redroot pigweed", "assay": "Test A pre-/postemergence herbicide test", "format": "in vivo, Amaranthus retroflexus", "how_it_was_run": "(§1)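 Pre: seeded sandy loam, directed soil spray, compound in non-phytotoxic solvent + surfactant. Post: 1–2-leaf plants (2–10 cm), sprayed to runoff. Greenhouse ~10 d; visual injury vs untreated, 0–100 scale.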"}, "large crabgrass": {"tested_on": "large crabgrass", "assay": "Test C pre-/postemergence herbicide test", "format": "in vivo, Digitaria sanguinalis", "conditions": "for Crabgrass, Large plant response rating: 500 g ai/ha", "how_it_was_run": "(§2)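 Visual injury scores run from 0 (no effect) to 100 (complete control), assessed relative to untreated controls 12 to 14 days after treatment in the greenhouse. Chemicals were formulated in a non-phytotoxic solvent mixture with surfactant and applied to soil after planting or to emerged plants at the 1- to 4-leaf stage.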"}, "Surinam grass": {"tested_on": "Surinam grass", "assay": "Test C pre-/postemergence herbicide test", "format": "in vivo, Urochloa decumbens", "conditions": "for Surinam Grass plant response rating: 500 g ai/ha", "how_it_was_run": "as §2"}, "ducksalad": {"tested_on": "ducksalad", "assay": "Test B flooded paddy test", "format": "in vivo, Heteranthera limosa", "conditions": "1000 g ai/ha, visual rating, scale 0 to 100 (0 no effect, 100 complete control), 13 to 15 days", "how_it_was_run": "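Paddy species grown to the 2-leaf stage under flooding; blackgrass sprayed postemergence at 2–18 cm (1- to 4-leaf stage). Plants kept in a greenhouse for 13 to 15 days, then visually rated against controls on 0 (no effect) to 100 (complete control).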"}, "giant foxtail": {"tested_on": "giant foxtail", "assay": "Test A pre-/postemergence herbicide test", "format": "in vivo, Setaria faberi", "how_it_was_run": "as §1"}, "lambsquarters": {"tested_on": "lambsquarters", "assay": "Test C pre-/postemergence herbicide test", "format": "in vivo, Chenopodium album", "conditions": "for Lambsquarters plant response rating: 500 g ai/ha", "how_it_was_run": "as §2"}, "barnyardgrass": {"tested_on": "barnyardgrass", "assay": "Test B pre-/postemergence herbicide test", "format": "in vivo, Echinochloa crus-galli", "how_it_was_run": "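Test chemicals in a non-phytotoxic solvent mixture with surfactant were applied preemergence to seeded species and postemergence to plants 2-18 cm tall (1- to 4-leaf stage); rice and barnyardgrass were also tested in a flooded paddy at the 2-leaf stage. Visual rating versus controls after 13-15 days in greenhouse, scale 0 (no effect) to 100 (complete control).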"}, "common ragweed": {"tested_on": "common ragweed", "assay": "Test C pre-/postemergence herbicide test", "format": "in vivo, Ambrosia elatior", "set-up": "key to Plant response rating, Ragweed: 0 = no effect, 100 = complete control", "conditions": "for Ragweed plant response rating: 500 g ai/ha", "how_it_was_run": "as §2"}, "yellow nutsedge": {"tested_on": "yellow nutsedge", "assay": "Test C pre-/postemergence herbicide test", "format": "in vivo, Cyperus esculentus", "conditions": "for Nutsedge, Yellow plant response rating: 500 g ai/ha", "how_it_was_run": "as §2"}, "[1]": {"conditions": "Postemergence, 500 g ai/ha, 0 to 100 scale, 0 no effect, 100 complete control"}, "[2]": {"conditions": "Postemergence, 2000 g ai/ha, 0 to 100 scale, 0 no effect, 100 complete control"}, "[3]": {"conditions": "Preemergence, 500 g ai/ha, visual rating, 0 to 100 scale (0 no effect, 100 complete control)"}, "[4]": {"conditions": "Preemergence, 2000 g ai/ha, 0 to 100 scale, 0 no effect, 100 complete control"}, "[5]": {"conditions": "Postemergence, 250 g ai/ha, scale 0 to 100, 0 no effect, 100 complete control"}, "[6]": {"conditions": "postemergence, 125 g ai/ha, scale 0 to 100"}, "[7]": {"conditions": "postemergence, 62 g ai/ha, scale 0 to 100"}, "[8]": {"conditions": "postemergence, 125 g ai/ha, visual rating, scale 0 (no effect) to 100 (complete control)"}, "[9]": {"conditions": "preemergence, 125 g ai/ha, 0 to 100 scale, 0 is no effect, 100 is complete control"}, "[10]": {"conditions": "Preemergence, 2000 g ai/ha, visual rating, 0 to 100 scale (0 no effect, 100 complete control)"}, "[11]": {"conditions": "62 g ai/ha, preemergence, scale 0 to 100"}, "[12]": {"conditions": "125 g ai/ha, scale 0 (no effect) to 100 (complete control), visual, 12 to 14 days, preemergence"}, "[13]": {"conditions": "Preemergence, scale 0 to 100, 0 no effect, 100 complete control"}}}
{"molecule": "C=CCOC(=O)c1cccc(NC(=O)c2cc(C(C)(C)C)nn2CC)c1", "note": "[Compound 85]", "values": [{"measurement": "Pigweed plant response rating", "setting": "redroot pigweed; [1]", "result": 75}, {"measurement": "Plant response rating, Pigweed", "setting": "redroot pigweed; [2]", "result": 70}, {"measurement": "Pigweed plant response rating", "setting": "redroot pigweed; [3]", "result": 0}, {"measurement": "Pigweed plant response rating", "setting": "redroot pigweed; [4]", "result": 5}, {"measurement": "Crabgrass, Large plant response rating", "setting": "large crabgrass; Postemergence, scale 0 to 100", "result": 40}, {"measurement": "Plant response rating, Crabgrass, Large", "setting": "large crabgrass; [5]", "result": 10}, {"measurement": "Plant response rating, Crabgrass, Large", "setting": "large crabgrass; [6]", "result": 5}, {"measurement": "Plant response rating, Crabgrass, Large", "setting": "large crabgrass; [7]", "result": 0}, {"measurement": "Surinam Grass plant response rating", "setting": "Surinam grass; Postemergence, scale 0 to 100", "result": 80}, {"measurement": "Plant response rating, Surinam Grass", "setting": "Surinam grass; [5]", "result": 80}, {"measurement": "Plant response rating, Surinam Grass", "setting": "Surinam grass; [6]", "result": 30}, {"measurement": "Plant response rating, Surinam Grass", "setting": "Surinam grass; [7]", "result": 25}, {"measurement": "Ducksalad plant response rating", "setting": "ducksalad", "result": 20}, {"measurement": "Foxtail, Giant plant response rating", "setting": "giant foxtail; [1]", "result": 20}, {"measurement": "Plant response rating, Foxtail, Giant", "setting": "giant foxtail; [2]", "result": 30}, {"measurement": "Foxtail, Giant plant response rating", "setting": "giant foxtail; [3]", "result": 0}, {"measurement": "Foxtail, Giant plant response rating", "setting": "giant foxtail; [4]", "result": 0}, {"measurement": "Lambsquarters plant response rating", "setting": "lambsquarters; Postemergence, scale 0 to 100", "result": 100}, {"measurement": "Plant response rating, Lambsquarters", "setting": "lambsquarters; [5]", "result": 50}, {"measurement": "Plant response rating, Lambsquarters", "setting": "lambsquarters; [6]", "result": 30}, {"measurement": "Plant response rating, Lambsquarters", "setting": "lambsquarters; [7]", "result": 10}, {"measurement": "Plant response rating, Barnyardgrass", "setting": "barnyardgrass; Postemergence, 500 g ai/ha, visual rating after 13 to 15 days, scale 0 (no effect) to 100 (complete control)", "result": 80}, {"measurement": "Barnyardgrass plant response rating", "setting": "barnyardgrass; Preemergence, 500 g ai/ha, scale 0 to 100", "result": 0}, {"measurement": "Barnyardgrass plant response rating", "setting": "barnyardgrass; [8]", "result": 60}, {"measurement": "Plant response rating, Barnyardgrass", "setting": "barnyardgrass; [9]", "result": 0}, {"measurement": "Ragweed plant response rating", "setting": "common ragweed; Postemergence, scale 0 to 100", "result": 60}, {"measurement": "Plant response rating, Ragweed", "setting": "common ragweed; [5]", "result": 40}, {"measurement": "Plant response rating, Ragweed", "setting": "common ragweed; [6]", "result": 10}, {"measurement": "Plant response rating, Ragweed", "setting": "common ragweed; [7]", "result": 10}, {"measurement": "Nutsedge, Yellow plant response rating", "setting": "yellow nutsedge; Postemergence, scale 0 to 100", "result": 40}, {"measurement": "Plant response rating, Nutsedge, Yellow", "setting": "yellow nutsedge; [5]", "result": 20}, {"measurement": "Plant response rating, Nutsedge, Yellow", "setting": "yellow nutsedge; [6]", "result": 20}, {"measurement": "Plant response rating, Nutsedge, Yellow", "setting": "yellow nutsedge; [7]", "result": 10}]}
{"molecule": "CCNC(=O)c1cc(C)nc(NC(=O)c2cc(C(C)(C)C)nn2CC)c1", "note": "[Compound 149]", "values": [{"measurement": "Pigweed plant response rating", "setting": "redroot pigweed; [1]", "result": 65}, {"measurement": "Plant response rating, Pigweed", "setting": "redroot pigweed; [2]", "result": 90}, {"measurement": "Pigweed plant response rating", "setting": "redroot pigweed; [10]", "result": 95}, {"measurement": "Pigweed plant response rating", "setting": "redroot pigweed; preemergence, 500 g ai/ha, visual injury, 0 to 100 scale (0 no effect, 100 complete control)", "result": 90}, {"measurement": "Plant response rating, Crabgrass, Large", "setting": "large crabgrass; [11]", "result": 20}, {"measurement": "Plant response rating, Crabgrass, Large", "setting": "large crabgrass; [12]", "result": 90}, {"measurement": "Plant response rating, Crabgrass, Large", "setting": "large crabgrass; 250 g ai/ha, scale 0 to 100 (0 no effect, 100 complete control), visual, 12 to 14 days, preemergence", "result": 100}, {"measurement": "Crabgrass, Large plant response rating", "setting": "large crabgrass; [13]", "result": 100}, {"measurement": "Plant response rating, Surinam Grass", "setting": "Surinam grass; [11]", "result": 0}, {"measurement": "Plant response rating, Surinam Grass", "setting": "Surinam grass; [12]", "result": 5}, {"measurement": "Surinam Grass plant response rating", "setting": "Surinam grass; [13]", "result": 85}, {"measurement": "Ducksalad plant response rating", "setting": "ducksalad", "result": 90}, {"measurement": "Foxtail, Giant plant response rating", "setting": "giant foxtail; [1]", "result": 40}, {"measurement": "Plant response rating, Foxtail, Giant", "setting": "giant foxtail; [2]", "result": 65}, {"measurement": "Foxtail, Giant plant response rating", "setting": "giant foxtail; [3]", "result": 70}, {"measurement": "Foxtail, Giant plant response rating", "setting": "giant foxtail; [10]", "result": 100}, {"measurement": "Plant response rating, Lambsquarters", "setting": "lambsquarters; [11]", "result": 75}, {"measurement": "Plant response rating, Lambsquarters", "setting": "lambsquarters; [12]", "result": 95}, {"measurement": "Lambsquarters plant response rating", "setting": "lambsquarters; [13]", "result": 95}, {"measurement": "Plant response rating, Barnyardgrass", "setting": "barnyardgrass; 500 g ai/ha, visual rating 0-100, 0 no effect, 100 complete control, preemergence", "result": 90}, {"measurement": "Barnyardgrass plant response rating", "setting": "barnyardgrass; [8]", "result": 0}, {"measurement": "Barnyardgrass plant response rating", "setting": "barnyardgrass; postemergence, 500 g ai/ha, visual rating, scale 0 (no effect) to 100 (complete control)", "result": 30}, {"measurement": "Plant response rating, Barnyardgrass", "setting": "barnyardgrass; [9]", "result": 80}, {"measurement": "Plant response rating, Ragweed", "setting": "common ragweed; [11]", "result": 0}, {"measurement": "Plant response rating, Ragweed", "setting": "common ragweed; [12]", "result": 0}, {"measurement": "Ragweed plant response rating", "setting": "common ragweed; [13]", "result": 5}, {"measurement": "Plant response rating, Nutsedge, Yellow", "setting": "yellow nutsedge; [11]", "result": 0}, {"measurement": "Plant response rating, Nutsedge, Yellow", "setting": "yellow nutsedge; [12]", "result": 0}, {"measurement": "Nutsedge, Yellow plant response rating", "setting": "yellow nutsedge; [13]", "result": 0}]}
